Reference: patent publication US5140025A, “Thienotricylene for the treatment of bronchial diseases” (BYK Gulden Lomberg Chemische Fabrik GmbH, priority 1987, dated 1992)
Like-named read-outs stand apart in the source and are kept apart here.

Assays:
[1] = test system: acetylcholine-induced changes in lung function parameters; assay: Acetylcholine-induced changes in lung function parameters in anaesthetised guinea pigs, intratracheal administration (whole-body plethysmography); type: in vivo, guinea pig (Pirbright White); settings: for Bronchospasmolytic activity, percentage increase of compliance vs control / Bronchospasmolytic activity, percentage increase of conductance vs control: x±SEM, N=10; for ED50: Cavia porcellus
Source text: Effect of Intratracheally (i.t.) Administered (±)-Telenzepine on Acetylcholine-Induced Changes in Lung Function Parameters in Anaesthetised Guinea Pigs
Small-anmimal whole-body plethysmography in anaesthetised guinea pigs (method according to U. Heinreich and A. Wilhelm, in bga-Schriften 5/84, pp 255-266, MMW-Verlag, 1984).
Pirbright White, Interfauna (Tuttlingen). 290-350 g, male.
Ethylurethane 1.2 g/kg i.p. as 12.5% aqueous solution.
Plethysmographic measurement of maximum flow velocities of the respiratory air and tidal volume using tracheal catheter inserted through the natural passages; and measurement of intrapleural pressure using oesophageal catheter inserted through the natural passages.
0.001, 0.01, 0.1 and 1 μmol/kg (±)-telenzepine i.t., dissolved in 0.1 ml/kg 0.9% NaCl+0.1% Tween 80, acetylcholine as spasmogen administered by inhalation of ultrasonically nebulized 0.18% acetylcholine/0.9% NaCl solution.
-10 min control spasm, 0 min administration of substance, +5 and +30 min test spasms.
Computation of conductance (=capacity of airways to conduct air, equivalent to reciprocal of airway resistance) and of compliance (=distensibility of lung) from the recorded data, according to the method of Amdur and Mead (Amer. J. Physiol., 192, 364-368, 1958), before and at peak spasm, and determination of differences; calculation of percentage inhibition of the spasm after administration of the substance, in comparison with the control spasm; calculation of the dose/response curve and ED50 values of this bronchospasmolytic activity.

[2] = target: T1, M2 receptor (cardiac) (Rattus norvegicus, UniProt P10980); assay: Receptor affinity, electrically stimulated left atrium of the rat; settings: agonist carbachol, Schild slope normalised to 1.00, read-out: pA2 ± SEM, M2 receptor (cardiac) (converted)
T1 construct: isolated, left atria of rats (male 250-350 g); from tissue; host or cells: rat left atrium (isolated, male rats 250-350 g)
T1 sequence (P10980 1-466): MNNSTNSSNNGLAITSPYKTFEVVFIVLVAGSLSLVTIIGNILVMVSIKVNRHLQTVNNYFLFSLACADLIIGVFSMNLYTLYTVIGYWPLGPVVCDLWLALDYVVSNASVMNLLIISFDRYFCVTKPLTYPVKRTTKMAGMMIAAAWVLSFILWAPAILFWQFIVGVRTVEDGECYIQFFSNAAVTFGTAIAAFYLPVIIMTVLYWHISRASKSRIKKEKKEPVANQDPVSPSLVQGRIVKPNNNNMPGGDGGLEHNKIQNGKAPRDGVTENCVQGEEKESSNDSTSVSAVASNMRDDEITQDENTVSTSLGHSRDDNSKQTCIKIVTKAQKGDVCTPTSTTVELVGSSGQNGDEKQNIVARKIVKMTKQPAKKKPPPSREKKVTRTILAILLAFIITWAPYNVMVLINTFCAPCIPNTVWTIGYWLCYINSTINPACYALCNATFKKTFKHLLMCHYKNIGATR
Source text: The affinity of (±)-4,9-dihydro-3-methyl-4-[(4-methyl-1-piperazinyl)-acetyl]-10H-thieno[3,4-b][1,5]benzodiazepin-10-one (telenzepine, compound 2 in Table 7) and its conformers [(+)-enantiomer=compound 1, (-)-enantiomer=compound 3] to muscarinic M1 (ganglionic type) and M2 (cardiac type) receptors was investigated by the following methods:
Electrically Stimulated Left Atrium of the Rat (Eltze et al., 1985, Europ. J. Pharmacol. 112, 211-224).
Isometric contractions (HSE force transducer, K-30; Watanabe Linear Corder Mark 5) of isolated, left atria of rats (male 250-350 g) were recorded in an organ bath (10 ml, Tyrode nutrient solution, 31° C., gassing with carbogen, initial tension of the organs 0.25 g) under electrical stimulation (HSE stimulator; hook-shaped Pt electrodes at the base of the bath and immersed, annular Pt electrodes 1 cm below the water surface of the bath; 7 V, 3 ms, 2 Hz). After an equilibration time of 30 minutes, cumulative dose/response curves of carbachol (10^-8 -10^-6 M, in the presence of the antagonist also up to 10^-5 or 10^-4 M) were recorded simultaneously on 4 organs in each case by the technique described by van Rossum (1963). The substance to be tested was added to the organ baths 20 minutes before application of the carbachol. The pauses between the individual dose/response curves were 30-45 minutes.
The Tyrode nutrient solution used had the following composition (mM): NaCl 130, KCl 2.0, CaCl2 ·2H2 O 1.8, MgCl2 ·6H2 O 0.98, NaHCO3 12.0, NaH2 PO4 0.42 and glucose monohydrate 5.6. pA2 values (-log of the molar dissociation constants of the competitive antagonist-receptor complex) were determined by linear regression using the Schild plot: pA2 =-log [B/(x-1)], (Arunlakshana and Schild, 1959).
Table 7 below gives pA2 values of the substances, for which the slope of the regression lines for theoretically competitive antagonism have been normalised to 1.00 (Tallarida et al., 1979).

Q: Which results are given for `Cc1scc2c1N(C(=O)CN1CCN(C)CC1)c1ccccc1NC2=O` (racemic) [(±)-telenzepine, 4,9-dihydro-3-methyl-4-[(4-methyl-1-piperazinyl)-acetyl]-10H-thieno[3,4-b][1,5]benzodiazepin-10-one]?
A: Bronchospasmolytic activity, percentage increase of compliance vs control ([1]; 5 min, 0.001 μmol/kg i.t.): 5 ± 1%; Bronchospasmolytic activity, percentage increase of conductance vs control ([1]; 5 min, 0.001 μmol/kg i.t.): 12 ± 3%; Bronchospasmolytic activity, percentage increase of compliance vs control ([1]; 5 min, 0.01 μmol/kg i.t.): 50 ± 9%; Bronchospasmolytic activity, percentage increase of conductance vs control ([1]; 5 min, 0.01 μmol/kg i.t.): 62 ± 10%; Bronchospasmolytic activity, percentage increase of compliance vs control ([1]; 5 min, 0.1 μmol/kg i.t.): 34 ± 10%; Bronchospasmolytic activity, percentage increase of conductance vs control ([1]; 5 min, 0.1 μmol/kg i.t.): 46 ± 10%; Bronchospasmolytic activity, percentage increase of compliance vs control ([1]; 5 min, 1 μmol/kg i.t.): 57 ± 9%; Bronchospasmolytic activity, percentage increase of conductance vs control ([1]; 5 min, 1 μmol/kg i.t.): 65 ± 9%; Bronchospasmolytic activity, percentage increase of compliance vs control ([1]; 30 min, 0.001 μmol/kg i.t.): 13 ± 3%; Bronchospasmolytic activity, percentage increase of conductance vs control ([1]; 30 min, 0.001 μmol/kg i.t.): 20 ± 5%; Bronchospasmolytic activity, percentage increase of compliance vs control ([1]; 30 min, 0.01 μmol/kg i.t.): 49 ± 9%; Bronchospasmolytic activity, percentage increase of conductance vs control ([1]; 30 min, 0.01 μmol/kg i.t.): 51 ± 9%; Bronchospasmolytic activity, percentage increase of compliance vs control ([1]; 30 min, 0.1 μmol/kg i.t.): 51 ± 9%; Bronchospasmolytic activity, percentage increase of conductance vs control ([1]; 30 min, 0.1 μmol/kg i.t.): 54 ± 7%; Bronchospasmolytic activity, percentage increase of compliance vs control ([1]; 30 min, 1 μmol/kg i.t.): 89 ± 4%; Bronchospasmolytic activity, percentage increase of conductance vs control ([1]; 30 min, 1 μmol/kg i.t.): 84 ± 2%; ED50 ([1]; 5 min, 5 min p.a., read-out: ED50 of bronchospasmolytic activity, compliance): 0.3 µmol/kg; ED50 ([1]; 5 min, 5 min p.a., read-out: ED50 of bronchospasmolytic activity, conductance): 0.05 µmol/kg; ED50 ([1]; 0.5 h, 30 min p.a., read-out: ED50 of bronchospasmolytic activity, compliance): 0.03 µmol/kg; ED50 ([1]; 0.5 h, 30 min p.a., read-out: ED50 of bronchospasmolytic activity, conductance): 0.03 µmol/kg; dose range of time- and dose-dependent inhibition of acetylcholine-induced reduction of conductance and compliance ([1]; i.t.): 0.001-1 μmol/kg i.t.; efficacy at 30 min compared with 5 min after administration ([1]; i.t.): more pronounced at 30 min than at 5 min; Kb [2]: 47.9 nM
